The subject of one data set is ET-10AL capture sequence. As to the kind of experiment: Electronically controlled fluorescent DNA/dye (ethidium bromide) detection. Format: binding. The conditions noted are these: capture ET-10AL; peak EB fluorescence after positive bias 0.05 mA, 0.03 Volt-Hours. The protocol: Microcapillary test devices were prepared and hybridized as described in Example 2 and 3. Ethidium bromide (EB) was added to the buffer solution (˜0.05 mM EB final concentration) and the test devices were biased negative to concentrate EB (positively charged) at both the hybridized and un-hybridized microlocations. The test devices were observed by epifluorescece microscopy at 550 nm excitation and 600 nm emission.
The test devices were re-mounted biased positive
constant current at 0.05 mA for 0.03 Volt-Hours, to selectively remove the EB. Fluorescence at the un-hybridized microlocations diminished while the hybridized microlocations retained a very high level of EB fluorescence. The results are given below:
Fluorescent signal was measured using an ICCD imaging
camera system and represent peak fluorescent intensities. The signal to noise ratio would be more than 1000 fold if the entire fluorescent signal area was integrated.

The nature of data set [1]: Conductivity measurements of transport buffers. Format: physicochemical.
For data set [2] the following is noted: cited from earlier work.
The conditions of data set [3]: not told.

Here are results for 20 compounds from patent US20070178516A1, “Self-addressable self-assembling microelectronic integrated systems, component devices, mechanisms, methods, and procedures for molecular biological analysis and diagnostics” (NANOGEN, INC., priority 1993, published 2007).

{Amino} = amino group added with ABI Aminolink 2 reagent, reacts with dyes such as Texas Red Some results are limits rather than exact numbers.

Turning to “5′-Amino-CCT GCT CAT GAG TCT CTC (CCTGCTCATGAGTCTCTC; DNA, 5' {Amino}, backbone not given here; further chemistry not fully specified) [ET-11AL]”, the “Normalized Signal” value with ET-10AL capture sequence is more than 200.

“5′-Amino-TGCGAGCTGCAGTCAGACAT (TGCGAGCTGCAGTCAGACAT; DNA, 5' {Amino}, backbone not given here; further chemistry not fully specified) [ET-21A]”: the “Normalized Signal” value in the data set with ET-10AL capture sequence is listed as 1.

Turning to `[Cl-].[Cl-].[Mg+2]` [0.1 mM MgCl2, MgCl2], in data set [1], the “Average/Std. Deviation (conductivity)” value is reported as 17.3 +/− 0.87 μS/cm, the “Measurement 1 (conductivity)” value turned out to be 16.9 μS/cm, the “Measurement 2 (conductivity)” value is recorded as 16.7 μS/cm and the “Measurement 3 (conductivity)” value was 18.3 μS/cm.

Take `[Cl-].[Na+]` [0.1 mM NaCl, NaCl]: in data set [1], the “Average/Std. Deviation (conductivity)” value is 9.43 +/− 0.93 μS/cm, the “Measurement 1 (conductivity)” value is reported as 8.80 μS/cm, the “Measurement 2 (conductivity)” value is on record as 8.98 μS/cm and the “Measurement 3 (conductivity)” value stood at 10.5 μS/cm.

Turning to `[Cl-].[Cl-].[Mg+2]` [1 mM MgCl2, MgCl2], in data set [1], the “Average/Std. Deviation (conductivity)” value is listed as 186 +/− 18.8 μS/cm, the “Measurement 1 (conductivity)” value is recorded as 174 μS/cm, the “Measurement 2 (conductivity)” value is reported as 208 μS/cm and the “Measurement 3 (conductivity)” value is 177 μS/cm.

Consider `[Cl-].[Na+]` [1 mM NaCl, NaCl], for which, in data set [1], the “Average/Std. Deviation (conductivity)” value is listed as 112.7 +/− 2.08 μS/cm, the “Measurement 1 (conductivity)” value was found to be 112 μS/cm, the “Measurement 2 (conductivity)” value is 115 μS/cm and the “Measurement 3 (conductivity)” value is listed as 111 μS/cm.

Take `Cn1cncc1C[C@H](N)C(=O)O` [1(π)-methylhistidine]: in data set [2], the “pKa (first listed)” value is listed as 1.64,, the “pKa (second listed)” value was 6.46, and the “pKa (third listed)” value is reported as 8.61^3.

For `Cn1cnc(C[C@H](N)C(=O)O)c1` [3(τ)-methylhistidine], in data set [2], the “pKa (first listed)” value was 1.70,, the “pKa (second listed)” value is listed as 5.87, and the “pKa (third listed)” value is given as 9.16^3.

Regarding `O=C([O-])CCC(=O)[O-].[Na+].[Na+]` [5 mM NaSuccinate, NaSuccinate], in data set [1], the “Average/Std. Deviation (conductivity)” value was 1.01 +/− 0.045 mS/cm, the “Measurement 1 (conductivity)” value was determined as 1.05 mS/cm, the “Measurement 2 (conductivity)” value was found to be 960 μS/cm and the “Measurement 3 (conductivity)” value was 1.01 mS/cm.

With `NC(CO)(CO)CO` [10 mM TRIS, TRIS], in data set [1], the “Average/Std. Deviation (conductivity)” value is given as 572 +/− 10.5 μS/cm, the “Measurement 1 (conductivity)” value is listed as 572 μS/cm, the “Measurement 2 (conductivity)” value was 562 μS/cm and the “Measurement 3 (conductivity)” value was determined as 583 μS/cm.

Consider `O=S(=O)(O)CCN1CCN(CCO)CC1` [25 mM HEPES, HEPES], for which, in data set [1], the “Average/Std. Deviation (conductivity)” value was 9.7 +/− 0.71 μS/cm, the “Measurement 1 (conductivity)” value was determined as 9.16 μS/cm, the “Measurement 2 (conductivity)” value was 9.44 μS/cm and the “Measurement 3 (conductivity)” value is reported as 10.5 μS/cm.

`N[C@@H](CS)C(=O)O` [250 mM Cysteine, Cysteine]: in data set [1], the “Average/Std. Deviation (conductivity)” value is 22.7 +/− 5.09 μS/cm, the “Measurement 1 (conductivity)” value turned out to be 27.4 μS/cm, the “Measurement 2 (conductivity)” value is 17.3 μS/cm and the “Measurement 3 (conductivity)” value is given as 23.5 μS/cm.

`N[C@@H](CS)C(=O)O` [Cysteine] had a conductance in data set [1] (250 mM cysteine solution, pH 4 to 6 range) of approximately 23 μS/cm.

For the compound `N[C@@H](Cc1c[nH]cn1)C(=O)O` [Histidine], the “pH above the surface of the permeation layer” value in data set [3] is more than 5.

On to `O=P(O)(O)O` [NaPO4, Sodium Phosphate], for which the conductance in data set [1] (20 mM sodium phosphate) is approximately 2.9 mS/cm.

Take `c1c[nH]cn1` [imidazole]: in data set [3], the “pH above the surface of the permeation layer” value is reported as more than 5.

Turning to `NCCC(=O)O` [β-Alanine], the “pKa (second listed)” value in data set [2] is 10.19.

Consider NaPO4 [1 mM NaPO4], for which, in data set [1], the “Average/Std. Deviation (conductivity)” value is recorded as 128.7 +/− 7.0 μS/cm, the “Measurement 1 (conductivity)” value is 122 μS/cm, the “Measurement 2 (conductivity)” value amounted to 128 μS/cm and the “Measurement 3 (conductivity)” value is listed as 136 μS/cm.

Take NaPO4 [10 mM NaPO4]: in data set [1], the “Average/Std. Deviation (conductivity)” value is 1.44 +/− 0.04 mS/cm, the “Measurement 1 (conductivity)” value stood at 1.40 mS/cm, the “Measurement 2 (conductivity)” value is 1.44 mS/cm and the “Measurement 3 (conductivity)” value stood at 1.48 mS/cm.

As for NaPO4 [20 mM NaPO4], in data set [1], the “Average/Std. Deviation (conductivity)” value is listed as 2.90 +/− 0.11 mS/cm, the “Measurement 1 (conductivity)” value is given as 2.90 mS/cm, the “Measurement 2 (conductivity)” value amounted to 2.79 mS/cm and the “Measurement 3 (conductivity)” value is listed as 3.00 mS/cm.
